Results published in patent US20060140857A1, “Method of the administration of drugs with binding affinity for plasma protein and preparation to be used in the method” (NIHON MEDI-PHYSICS CO., LTD., priority 1999, published 2006).

Assays:
[1] = Biodistribution of 123I-IMP in rat with verapamil loading; conditions: rats
Protocol: The rats were decapitated at 2, 5, 10, 30 and 60 minutes after administration. Then the blood was sampled and the organs of interest were excised. After measured the weight of these specimens, the radioactivities of the blood and organs were measured. After half-life of the radioactivities were corrected, the accumulation rate (% dose/g of the tissue) was obtained.

[2] = Free fraction of 123I-IMP in the blood of rats with verapamil loading; format: in vivo, rat
Protocol: Under the same conditions as mentioned above concerning the constitution of control and testing group, timings of decapitation, and dose of drugs, administrations of the drugs and decapitations of rats were conducted, and 3-5 ml of blood per one rat was sampled.

[3] = system: human plasma protein; test: Displacement of 123I-IMP binding to human plasma protein; conditions: human serum, control without second drug
[4] = loaded with verapamil about 10 mg/kg, 2 Minutes
[5] = loaded with verapamil about 10 mg/kg, 5 Minutes
[6] = loaded with verapamil about 10 mg/kg, 10 Minutes
[7] = loaded with verapamil about 10 mg/kg, 30 Minutes
[8] = loaded with verapamil about 10 mg/kg, 60 Minutes

CC(C)NC(C)Cc1ccc(I)cc1 (centres unmarked) [123I-IMP, N-isopropyl-p-iodoamphetamine]
Biodistribution of 123I-IMP, Blood ([1]; control group, 2 Minutes): 0.198 ± 0.052 % Dose/g Tissue
Biodistribution of 123I-IMP, Brain ([1]; control group, 2 Minutes): 1.800 ± 0.418 % Dose/g Tissue
Biodistribution of 123I-IMP, Heart ([1]; control group, 2 Minutes): 1.949 ± 0.293 % Dose/g Tissue
Biodistribution of 123I-IMP, Kidney ([1]; control group, 2 Minutes): 3.406 ± 0.905 % Dose/g Tissue
Biodistribution of 123I-IMP, Liver ([1]; control group, 2 Minutes): 0.506 ± 0.109 % Dose/g Tissue
Biodistribution of 123I-IMP, Lung ([1]; control group, 2 Minutes): 11.236 ± 0.780 % Dose/g Tissue
Biodistribution of 123I-IMP, Pancreas ([1]; control group, 2 Minutes): 1.503 ± 0.353 % Dose/g Tissue
Biodistribution of 123I-IMP, Spleen ([1]; control group, 2 Minutes): 0.880 ± 0.216 % Dose/g Tissue
Biodistribution of 123I-IMP, Stomach ([1]; control group, 2 Minutes): 0.302 ± 0.065 % Dose/g Tissue
Biodistribution of 123I-IMP, Blood ([1]; control group, 5 Minutes): 0.133 ± 0.005 % Dose/g Tissue
Biodistribution of 123I-IMP, Brain ([1]; control group, 5 Minutes): 1.476 ± 0.225 % Dose/g Tissue
Biodistribution of 123I-IMP, Heart ([1]; control group, 5 Minutes): 1.014 ± 0.070 % Dose/g Tissue
Biodistribution of 123I-IMP, Kidney ([1]; control group, 5 Minutes): 2.285 ± 0.256 % Dose/g Tissue
Biodistribution of 123I-IMP, Liver ([1]; control group, 5 Minutes): 0.699 ± 0.061 % Dose/g Tissue
Biodistribution of 123I-IMP, Lung ([1]; control group, 5 Minutes): 9.000 ± 0.600 % Dose/g Tissue
Biodistribution of 123I-IMP, Pancreas ([1]; control group, 5 Minutes): 1.923 ± 0.445 % Dose/g Tissue
Biodistribution of 123I-IMP, Spleen ([1]; control group, 5 Minutes): 0.999 ± 0.355 % Dose/g Tissue
Biodistribution of 123I-IMP, Stomach ([1]; control group, 5 Minutes): 0.500 ± 0.078 % Dose/g Tissue
Biodistribution of 123I-IMP, Blood ([1]; control group, 10 Minutes): 0.116 ± 0.011 % Dose/g Tissue
Biodistribution of 123I-IMP, Brain ([1]; control group, 10 Minutes): 1.006 ± 0.379 % Dose/g Tissue
Biodistribution of 123I-IMP, Heart ([1]; control group, 10 Minutes): 0.631 ± 0.111 % Dose/g Tissue
Biodistribution of 123I-IMP, Kidney ([1]; control group, 10 Minutes): 1.303 ± 0.190 % Dose/g Tissue
Biodistribution of 123I-IMP, Liver ([1]; control group, 10 Minutes): 0.711 ± 0.143 % Dose/g Tissue
Biodistribution of 123I-IMP, Lung ([1]; control group, 10 Minutes): 6.279 ± 1.026 % Dose/g Tissue
Biodistribution of 123I-IMP, Pancreas ([1]; control group, 10 Minutes): 1.721 ± 0.217 % Dose/g Tissue
Biodistribution of 123I-IMP, Spleen ([1]; control group, 10 Minutes): 1.008 ± 0.074 % Dose/g Tissue
Biodistribution of 123I-IMP, Stomach ([1]; control group, 10 Minutes): 0.407 ± 0.230 % Dose/g Tissue
Biodistribution of 123I-IMP, Blood ([1]; control group, 30 Minutes): 0.136 ± 0.028 % Dose/g Tissue
Biodistribution of 123I-IMP, Brain ([1]; control group, 30 Minutes): 1.346 ± 0.345 % Dose/g Tissue
Biodistribution of 123I-IMP, Heart ([1]; control group, 30 Minutes): 0.524 ± 0.037 % Dose/g Tissue
Biodistribution of 123I-IMP, Kidney ([1]; control group, 30 Minutes): 1.359 ± 0.222 % Dose/g Tissue
Biodistribution of 123I-IMP, Liver ([1]; control group, 30 Minutes): 1.192 ± 0.536 % Dose/g Tissue
Biodistribution of 123I-IMP, Lung ([1]; control group, 30 Minutes): 5.209 ± 1.446 % Dose/g Tissue
Biodistribution of 123I-IMP, Pancreas ([1]; control group, 30 Minutes): 2.032 ± 0.505 % Dose/g Tissue
Biodistribution of 123I-IMP, Spleen ([1]; control group, 30 Minutes): 1.356 ± 0.277 % Dose/g Tissue
Biodistribution of 123I-IMP, Stomach ([1]; control group, 30 Minutes): 0.885 ± 0.366 % Dose/g Tissue
Biodistribution of 123I-IMP, Blood ([1]; control group, 60 Minutes): 0.181 ± 0.006 % Dose/g Tissue
Biodistribution of 123I-IMP, Brain ([1]; control group, 60 Minutes): 1.511 ± 0.011 % Dose/g Tissue
Biodistribution of 123I-IMP, Heart ([1]; control group, 60 Minutes): 0.540 ± 0.026 % Dose/g Tissue
Biodistribution of 123I-IMP, Kidney ([1]; control group, 60 Minutes): 1.585 ± 0.132 % Dose/g Tissue
Biodistribution of 123I-IMP, Liver ([1]; control group, 60 Minutes): 1.442 ± 0.164 % Dose/g Tissue
Biodistribution of 123I-IMP, Lung ([1]; control group, 60 Minutes): 5.186 ± 0.616 % Dose/g Tissue
Biodistribution of 123I-IMP, Pancreas ([1]; control group, 60 Minutes): 1.957 ± 0.345 % Dose/g Tissue
Biodistribution of 123I-IMP, Spleen ([1]; control group, 60 Minutes): 1.290 ± 0.138 % Dose/g Tissue
Biodistribution of 123I-IMP, Stomach ([1]; control group, 60 Minutes): 1.245 ± 0.343 % Dose/g Tissue
Biodistribution of 123I-IMP, Blood [1, 4]: 0.238 ± 0.083 % Dose/g Tissue
Biodistribution of 123I-IMP, Brain [1, 4]: 1.584 ± 0.425 % Dose/g Tissue
Biodistribution of 123I-IMP, Heart [1, 4]: 3.769 ± 0.911 % Dose/g Tissue
Biodistribution of 123I-IMP, Kidney [1, 4]: 1.424 ± 0.313 % Dose/g Tissue
Biodistribution of 123I-IMP, Liver [1, 4]: 0.287 ± 0.156 % Dose/g Tissue
Biodistribution of 123I-IMP, Lung [1, 4]: 9.234 ± 1.748 % Dose/g Tissue
Biodistribution of 123I-IMP, Pancreas [1, 4]: 1.268 ± 0.375 % Dose/g Tissue
Biodistribution of 123I-IMP, Spleen [1, 4]: 0.052 ± 0.025 % Dose/g Tissue
Biodistribution of 123I-IMP, Stomach [1, 4]: 0.234 ± 0.111 % Dose/g Tissue
Biodistribution of 123I-IMP, Blood [1, 5]: 0.228 ± 0.012 % Dose/g Tissue
Biodistribution of 123I-IMP, Brain [1, 5]: 1.916 ± 0.131 % Dose/g Tissue
Biodistribution of 123I-IMP, Heart [1, 5]: 2.260 ± 0.680 % Dose/g Tissue
Biodistribution of 123I-IMP, Kidney [1, 5]: 1.278 ± 0.381 % Dose/g Tissue
Biodistribution of 123I-IMP, Liver [1, 5]: 0.350 ± 0.130 % Dose/g Tissue
Biodistribution of 123I-IMP, Lung [1, 5]: 8.377 ± 0.563 % Dose/g Tissue
Biodistribution of 123I-IMP, Pancreas [1, 5]: 1.659 ± 0.496 % Dose/g Tissue
Biodistribution of 123I-IMP, Spleen [1, 5]: 0.063 ± 0.250 % Dose/g Tissue
Biodistribution of 123I-IMP, Stomach [1, 5]: 0.164 ± 0.078 % Dose/g Tissue
Biodistribution of 123I-IMP, Blood [1, 6]: 0.139 ± 0.003 % Dose/g Tissue
Biodistribution of 123I-IMP, Brain [1, 6]: 2.145 ± 0.410 % Dose/g Tissue
Biodistribution of 123I-IMP, Heart [1, 6]: 1.247 ± 0.209 % Dose/g Tissue
Biodistribution of 123I-IMP, Kidney [1, 6]: 1.766 ± 0.678 % Dose/g Tissue
Biodistribution of 123I-IMP, Liver [1, 6]: 0.688 ± 0.237 % Dose/g Tissue
Biodistribution of 123I-IMP, Lung [1, 6]: 6.947 ± 1.486 % Dose/g Tissue
Biodistribution of 123I-IMP, Pancreas [1, 6]: 1.911 ± 0.685 % Dose/g Tissue
Biodistribution of 123I-IMP, Spleen [1, 6]: 0.213 ± 0.118 % Dose/g Tissue
Biodistribution of 123I-IMP, Stomach [1, 6]: 0.377 ± 0.013 % Dose/g Tissue
Biodistribution of 123I-IMP, Blood [1, 7]: 0.098 ± 0.044 % Dose/g Tissue
Biodistribution of 123I-IMP, Brain [1, 7]: 1.529 ± 0.811 % Dose/g Tissue
Biodistribution of 123I-IMP, Heart [1, 7]: 0.471 ± 0.209 % Dose/g Tissue
Biodistribution of 123I-IMP, Kidney [1, 7]: 1.231 ± 0.632 % Dose/g Tissue
Biodistribution of 123I-IMP, Liver [1, 7]: 1.185 ± 0.751 % Dose/g Tissue
Biodistribution of 123I-IMP, Lung [1, 7]: 3.890 ± 2.223 % Dose/g Tissue
Biodistribution of 123I-IMP, Pancreas [1, 7]: 1.877 ± 0.886 % Dose/g Tissue
Biodistribution of 123I-IMP, Spleen [1, 7]: 0.886 ± 0.319 % Dose/g Tissue
Biodistribution of 123I-IMP, Stomach [1, 7]: 0.782 ± 0.621 % Dose/g Tissue
Biodistribution of 123I-IMP, Blood [1, 8]: 0.110 ± 0.002 % Dose/g Tissue
Biodistribution of 123I-IMP, Brain [1, 8]: 1.449 ± 0.281 % Dose/g Tissue
Biodistribution of 123I-IMP, Heart [1, 8]: 0.456 ± 0.039 % Dose/g Tissue
Biodistribution of 123I-IMP, Kidney [1, 8]: 1.242 ± 0.146 % Dose/g Tissue
Biodistribution of 123I-IMP, Liver [1, 8]: 1.639 ± 0.051 % Dose/g Tissue
Biodistribution of 123I-IMP, Lung [1, 8]: 4.133 ± 0.079 % Dose/g Tissue
Biodistribution of 123I-IMP, Pancreas [1, 8]: 1.478 ± 0.161 % Dose/g Tissue
Biodistribution of 123I-IMP, Spleen [1, 8]: 1.193 ± 0.129 % Dose/g Tissue
Biodistribution of 123I-IMP, Stomach [1, 8]: 1.058 ± 0.126 % Dose/g Tissue
Free fraction (%) of 123I-IMP in the blood of rats ([2]; control group, 2 Minutes): 56.75 ± 9.21%
Free fraction (%) of 123I-IMP in the blood of rats ([2]; control group, 5 Minutes): 50.70 ± 10.37%
Free fraction (%) of 123I-IMP in the blood of rats ([2]; control group, 10 Minutes): 45.91 ± 3.12%
Free fraction (%) of 123I-IMP in the blood of rats ([2]; control group, 30 Minutes): 27.29 ± 4.85%
Free fraction (%) of 123I-IMP in the blood of rats ([2]; control group, 60 Minutes): 16.77 ± 4.11%
Free fraction (%) of 123I-IMP in the blood of rats ([2]; test group with verapamil loading, 2 Minutes): 52.40 ± 6.00%
Free fraction (%) of 123I-IMP in the blood of rats ([2]; test group with verapamil loading, 5 Minutes): 56.52 ± 4.38%
Free fraction (%) of 123I-IMP in the blood of rats ([2]; test group with verapamil loading, 10 Minutes): 66.86 ± 6.34%
Free fraction (%) of 123I-IMP in the blood of rats ([2]; test group with verapamil loading, 30 Minutes): 38.03 ± 6.69%
Free fraction (%) of 123I-IMP in the blood of rats ([2]; test group with verapamil loading, 60 Minutes): 31.86 ± 8.23%
free of fraction of 123I-IMP (%) [3]: 29.29%
